Laboratory results published in EP4458353A1, “ANTICARIOGENIC SYNERGETIC COMPOSITION FOR ORAL CARE” (SkyLab AG, priority 2023, dated 2024).

Legend:
[1] = system: S. mutans biofilms; assay: Biofilm formation on hydroxyapatite disks (CFU in resuspended biofilm); format: cell-based; details: for %N Control: percentage of S. mutans CFU on the disk in control experiment; for N S.mutans (CFU/mL): resuspended biofilm from hydroxyapatite disks, 64h incubation
Method: Example ? 6. Anti-biofilm activity of individual substances selected from naringenin, guava leaf extract, and lysozyme, or the composition thereof, is assessed from the rate of biofilm formation on hydroxyapatite disks, with the use of the following procedure: • 1) Prepare the heart-brain broth (DM106D, Mast Group Ltd., U.K.) and Columbian agar supplemented with defibrinated blood (OOO "GEM" Cat. No BP-023) in accordance with the manufacturer's instruction • 2) All stages of preparation of the bacterial culture suspensions were similar to those described in Example 1. • 3) Prepare saliva, which is required for biofilm formation and provides the bacteria adhesion to the surface of hydroxyapatite disks. […] Centrifuge the collected saliva at 12 000 rpm for 30 minutes at 4°C. Harvest the supernatant into the clean tube and subject to pasteurization at 65°C for 30 minutes followed by one more centrifugation.
The efficacy of saliva pasteurization is assessed from direct inoculation on Columbian blood agar. The plates are incubated under aerobic and anaerobic conditions at 37°C for 72 hours. The saliva is considered sterile if no growth of bacterial and fungal colonies is observed within 72 hours of observation.
Store the saliva at temperature -80 °C before the use. • 4) To form the salivary film on the surface of hydroxyapatite disk put three sterile disks (sterilization by autoclaving at 132 °C for 20 min) in each of 9 Petri dishes 40 mm in diameter abd incubate in 3 mL of the pasteurized saliva at room temperature for 4 hours with gentle shaking on orbital shaker. Then remove the saliva and add 3 mL of nutritive medium containing 1.2 mL of heart-brain broth; 1.2 mL of pasteurized saliva; 0.6 mL of S. mutans suspension at concentration of 10^6 CFU/mL into the Petri dish. The formation of S. mutans biofilm on the disk surface is achieved at 37°C under the atmosphere of 5 % CO2 in the environment, with gentle shaking on orbital shaker for 16 hours. • 5) After 16-hour incubation remove old nutritive medium from the dishes and add a fresh portion of heart-brain broth containing S. mutans suspension and the pasteurized saliva. Add the active substances selected from naringenin, guava leaf extract and lysozyme or combination thereof to final concentration 0.1 or 1.0 mg/mL. Repeat the procedure of medium replacement twice daily within […] and 8 h after the first change. • 6) To remove the biofilm formed in the disk surface take the disks away from Petri dishes after the incubation for 2 days and rinse in the large volume of PBS (pH 7.2). Then place the disks into sterile Petri dishes with 3 mL of PBS (pH 7.2) and shake vigorously on the orbital shaker for 30 minutes. […]

[2] = system: Streptococcus mutans No 22081; assay: Growth of planktonic culture in liquid nutritive medium (CFU count after 5 h); format: cell-based; details: S. mutans planktonic culture; 1 mg/mL; 5 h incubation
Method: Example ? 3. Antibacterial activity of naringenin, guava leaf extract and lysozyme was assessed from the growth pattern of the reference strain Streptococcus mutans No 22081 (UNU Collection under I. I. Mechnikov Research Institute if Vaccines and sera) in liquid nutritive medium according to the procedure: • 1) Prepare the heart-brain broth (DM106D, Mast Group Ltd., U.K.) and Columbian agar supplemented with defibrinated blood (OOO "GEM" Cat. No BP-023) in accordance with the manufacturer's instruction. • 2) Using microbiological loop prepare the suspension (at concentration 1.5·10^8 CFU/mL) of 24 hour agar culture of S. mutans in the sterile buffered saline (BS) under visual control with McFarland standard 0.5. […] Prepare the composition of naringenin 0.33 mg/mL, lysozyme 0.33 mg/mL, and guava leaf extract 0.33 mg/mL. • 4) Put the plate with the samples into the incubator with 5% CO2 atmosphere, and incubate at 37°C for 5 h on shaking apparatus. • 5) After the 5 h incubation reinoculate the agar nutritive medium with the planktonic S. mutans culture to count CFU per 1 mL of medium. • 6) Perform optical density (OD) measurements using multimodal microplate reader at the wavelength 620 nm before the incubation (OD0) and then after the culture growth for 5 h ODt=5). […]

O=C1C[C@@H](c2ccc(O)cc2)Oc2cc(O)cc(O)c21 [Naringenin, naringenin]
%N Control ([1]; Csubstance 0.1 mg/mL): 66.7%
N S.mutans (CFU/mL) ([1]; Csubstance 0.1 mg/mL): 2.8·10^6 CFU/mL
%N Control ([1]; Csubstance 1.0 mg/mL): 50.0%
N S.mutans (CFU/mL) ([1]; Csubstance 1.0 mg/mL): 2.1·10^6 CFU/mL
% of CFU obtained for control [2]: 4.8%
∑ CFU, mL [2]: 4.3x10^7 CFU, mL
